Entries after “also recorded” stand apart in the source; their conditions may differ.
Columns and labels:
[1] = system: Notch signaling (target gene Hes1); assay: Notch inhibition: Hes1 mRNA by real-time qPCR in 3T3-L1 preadipocytes; assay type: cell-based; settings: for mRNA expression of Hes1: 3T3-L1 preadipocytes, 1 μM, 12 h, real-time qPCR; for dose dependence of the inhibitory effect on Hes1 expression: 0.5, 1 and 10 μM
Description: (§1) Cell culture and drug treatment. 3T3-L1 preadipocytes were cultured in Dulbecco's modified Eagle medium (DMEM) supplemented with 10% fetal bovine serum (FBS) and 1% antibiotics (penicillin and streptomycin) at 37° C., 5% CO2, and 95% relative humidity. The medium was routinely changed every two days and cells were separated by trypsin before reaching confluency. Beige adipocyte differentiation was induced by treating confluent preadipocytes with the adipogenic induction medium containing DMEM, 10% FBS, 0.5 mM isobutylmethylxanthine, 1 μM dexamethasone, 1.75 μM insulin, and 1 μM rosiglitazone. Three days after induction, medium was switched to the differentiation medium containing DMEM, 10% FBS, 850 nM insulin, and 10 nM triiodothyronine until adipocytes matured. For the drug treatment, a series of GSIs were added to the cells in culture medium at the same final drug concentrations of 0.5, 1, and 10 μM, respectively, and cells were induced for differentiation.
(§2) RNA extraction, cDNA synthesis, and real-time qPCR. Total RNA was extracted from cells using TRIzol (Thermo Fisher Scientific, Waltham, Mass., USA) in accordance with the manufacturer's protocol. RNA was treated with RNase-free DNase I to remove contaminating genomic DNA and the purity as well as concentration of extracted RNA were determined by a spectrophotometer NanoDrop 2000c (Thermo Fisher Scientific, Waltham, Mass., USA). Subsequently, 2 μg of RNA was reverse transcribed to cDNA using random hexamer primers with M-MLV reverse transcriptase (Invitrogen, Carlsbad, Calif., USA). Real-time qPCR was performed in the Roche Light Cycler 480 PCR system (Roche, Basel, Switzerland) with SYBR Green master mix.
(§3) The 2^−ΔΔCT method was used to analyze the relative changes of gene expression after normalization to the expression of β-Actin.
To determine the impact of GSIs on inhibition of Notch signaling, 3T3-L1 preadipocytes were treated with a series of GSIs (see Table 1) at a concentration of 1 μM and the change in mRNA expression of Hes1, a Notch downstream transcriptional target gene, was evaluated using real-time qPCR.
To further examine the relationship between drug concentration and inhibitory effect of GSIs, cells were treated with the four most promising inhibitors (i.e., RO4929097, PF-03084014, LY3039478, and BMS-906024) at three gradient concentrations (0.5, 1, and 10 μM).
Effect of RO4929097-PLGA NPs on the Notch signaling target gene. 3T3-L1 preadipocytes were treated with DMSO, PLGA NPs (0.1 mg/mL), DBZ (10 μM), RO4929097 (1 μM) or RO4929097-PLGA NPs (0.1 mg/ml) for 12 h at 37° C. in a 5% CO2 incubator. The Notch target Hes1 mRNA expression was analyzed by qRT-PCR (FIG. 8). Each bar is the mean±SEM of 4 to 5 replicates in each group and the data were analyzed by one-way ANOVA followed by Tukey's post hoc comparison test. Asterisks refer to statistical difference between the indicated treatment groups (*p<0.05, **p<0.01, and ***p<0.001).

[2] = system: differentiated 3T3-L1 cells; assay: mRNA expression of adipogenic, mitochondrial and browning marker genes by real-time qPCR; assay type: cell-based; settings: for increase of mRNA expression of Tmem26: 0.5, 1 and 10 μM, highest dose significant versus control
Description: as §1, §2, §3

[3] = system: UCP1, PPARγ, and C/EBPα in differentiated 3T3-L1 cells; assay: Western blot of UCP1, PPARγ and C/EBPα protein; assay type: cell-based; settings: for protein expression of UCP1 / decrease of the upregulated UCP1 protein expression: western blot; for decrease of the upregulated UCP1 protein expression: increasing the concentration from 1 to 10 μM
Description: as §1
Protein extraction and western blotting. Total protein was extracted from cells using RIPA buffer containing 25 mM Tris-HCl (pH 8.0), 150 mM NaCl, 1 mM EDTA, 0.5% NP-40, 0.5% sodium deoxycholate and 0.1% SDS. Protein concentrations were determined by Pierce BCA Protein Assay Reagent (Pierce Biotechnology, Waltham, Mass., USA). Proteins were separated by SDS-PAGE and transferred to a polyvinylidene fluoride membrane (Millipore, Burlington, Mass., USA). The membrane was then blocked with 5% fat-free milk for 1 h at room temperature and incubated with primary antibodies in 5% milk overnight at 4° C. as well as secondary antibodies for 1 h at room temperature. Primary antibodies, including UCP1 (1:1000 dilution), C/EBPα (1:500 dilution), PPARγ (1:500 dilution), and β-Actin (1:5000 dilution), were used. HRP-conjugated secondary antibodies, including anti-rabbit and anti-mouse IgG, were also used at a dilution of 1:10,000. A luminol reagent for enhanced chemiluminescence detection of western blots (Santa Cruz Biotechnology, Dallas, Tex., USA) was employed and signals were detected with a FluorChem R imaging system (ProteinSimple, San Jose, Calif., USA).
The protein expression of adipogenic markers, such as PPARγ and C/EBPα, was also evaluated.

[4] = system: UCP1 in differentiated 3T3-L1 cells; assay: UCP1 immunofluorescence staining; assay type: cell-based; settings: 1 μM
Description: Immunofluorescence staining. After washing with phosphate-buffered saline (PBS), cells were fixed with 4% PFA, quenched with glycine (100 mM glycine and 0.1% sodium azide in PBS), and blocked with PBS containing 2% BSA, 5% goat serum, and 0.2% Triton X-100 for 1 h at room temperature. Subsequently, cells were incubated with the UCP1 antibody diluted at 1:500 in the same blocking buffer overnight at 4° C. and the Alexa Fluor® 488 conjugated goat anti-rabbit IgG (1:1000 dilution) for 1 h at room temperature. Nuclei were counterstained with 4′,6-diamidino-2-phenylindole (DAPI, 1 μg/mL), which was premixed with the secondary antibody.

[5] = system: 3T3-L1 preadipocytes; assay: Cell viability, MTS assay; settings: 0.5, 1 and 10 μM, 12 h
Description: Assessment of cell viability. In vitro cell viability after incubation with various GSIs at three concentrations was determined using an MTS assay, which is based on the mitochondrial conversion of a tetrazolium salt. 3T3-L1 preadipocytes were seeded onto 96-well plates at a density of 1×10^4 cells per well and cultured in 5% CO2 at 37° C. for 48 h. GSIs were then added to the cells in culture medium at the same final drug concentrations of 0.5, 1, and 10 μM, respectively, and cells were further incubated at 37° C. for 12 h. Subsequently, 20 μL of CellTiter 96® AQueous one solution reagent was added to each well in 100 μL of culture medium and incubated at 37° C. in a humidified, 5% CO2 atmosphere for 2 h. The absorbance was measured using a Tecan Spark™ 10M microplate reader (Tecan, Mannedorf, Switzerland) at a wavelength of 490 nm with background subtraction at 680 nm. Cells incubated with 0.1% Triton X-100 and dimethyl sulfoxide (DMSO) in culture medium served as positive and negative controls, respectively.
Effects of GSIs on cell viability. To investigate effects of GSIs on cell viability, 3T3-L1 preadipocytes were treated with GSIs at three gradient concentrations (0.5, 1, and 10 μM) for 12 h.

[6] = system: Notch (Hes1) in human tumor-derived cells; settings: cited from earlier work
[7] = all the concentrations (0.5, 1, 10 μM)

SMILES | mRNA expression of Hes1 [1] | increase of mRNA expression of Tmem26 [2] | dose dependence of the inhibitory effect on Hes1 expression [1] | protein expression of UCP1 ([3]; 1 μM) | cell viability / cytotoxicity [5] | other results
NC(=O)[C@@H](CCC(F)(F)F)N(Cc1ccc(-c2ncon2)cc1F)S(=O)(=O)c1ccc(Cl)cc1 [BMS-708163] | did not significantly decrease; also recorded: relatively moderate inhibitory effect |  |  |  |  | 
CN1C(=O)[C@@H](NC(=O)[C@H](CCC(F)(F)F)[C@H](CCC(F)(F)F)C(N)=O)N=C(c2ccccc2)c2ccccc21 [BMS-906024] | significantly inhibited | in a dose-dependent manner | more significant with increasing the drug concentration | minimal impact |  | protein expression of C/EBPα ([3]; 1 μM): significantly upregulated; UCP1 positive adipocytes (UCP1 expression) [4]: minimal efficiency
CC(C)[C@H](O)C(=O)N[C@@H](C)C(=O)N[C@@H]1C(=O)N(C)CCc2ccccc21 [LY450139] | did not significantly decrease |  |  |  |  | 
C[C@H](NC(=O)CCC(F)(F)F)C(=O)N[C@@H]1C(=O)N(CCO)c2ncccc2-c2ccccc21 [LY3039478] | significantly inhibited | in a dose-dependent manner | more significant with increasing the drug concentration | significant upregulation | did not result in any significant cytotoxicity | mRNA expression of Cox5B ([2]; 10 μM): Significant upregulation; mRNA expression of Ppargc1α ([2]; 10 μM): significant changes; protein expression of C/EBPα [3, 7]: significantly upregulated; protein expression of UCP1 ([3]; high concentration of 10 μM): did not significantly change
O=C(O)CC[C@H]1CC[C@@](c2cc(F)ccc2F)(S(=O)(=O)c2ccc(Cl)cc2)CC1 [MK-0752] | did not significantly decrease; also recorded: relatively moderate inhibitory effect |  |  |  |  | 
CCC[C@H](N[C@H]1CCc2cc(F)cc(F)c2C1)C(=O)Nc1cn(C(C)(C)CNCC(C)(C)C)cn1 [PF-03084014] | significantly inhibited | in a dose-dependent manner | more significant with increasing the drug concentration | significantly upregulated | decreased with increasing the drug concentration | mRNA expression of Cox5B ([2]; 1 μM): Significant upregulation; mRNA expression of Ppargc1α ([2]; 10 μM): significant changes; decrease of the upregulated UCP1 protein expression [3]: around 50%
CC(C)(C(=O)NCC(F)(F)C(F)(F)F)C(=O)N[C@@H]1C(=O)Nc2ccccc2-c2ccccc21 [RO4929097] | significantly inhibited |  | did not result in a dose-dependent depression | significantly upregulated | decreased with increasing the drug concentration | concentration above which no further reduction in mRNA level of Hes1 [6]: > 1 µM; concentration above which no further reduction in protein level of Hes1 [6]: higher than 0.5 μM; concentration at which dose-dependent inhibition of Notch begins [6]: ≥ 0.1 µM; mRNA expression of Cox5B [2, 7]: increased; protein expression of C/EBPα [3, 7]: significantly upregulated; decrease of the upregulated UCP1 protein expression [3]: around 50%
